Where a SMILES comes first, the peptide text is derived from it.

Experiment [1] has as its target unmodified hASL^Lys3UUU. Briefly: fluorescent binding assay of fluorescein-labeled peptides, binding constants. Also noted: species or system human. To be noted: N-terminal fluorescein peptide, phosphate buffer pH 6.8, ASL 0-3 μM. The method, then: (§1) Fifteen-amino acid peptides were selected from the sequences predicted in silico and were chemically synthesized, each with fluorescein (Flc) at the N-terminus. This set of peptides included the original P1 and P6 sequences to be used as an internal control. […] Concentrated peptide stocks were stored in 25 μl aliquots at […] for later use. Working concentrations were diluted for each experiment and kept on ice or stored at −20° C.
(§2) Fluorescent assays were conducted in phosphate buffer (10 mM Na2HPO4 and 10 mM KH2PO4, pH 6.8) in low volume 384 well plates. All buffers, peptides, and RNA were pipetted into wells via a liquid handling robot (Janus, PerkinElmer). All plates were read using a plate reader fitted with fluorescein specific filters (PerkinElmer EnVision) which was optimized for each plate and peptide before each experiment. Initial validation screens were conducted by obtaining fluorescent signals for each peptide (0.50 μM) alone (FS0) and in the presence of a 2-fold excess of modified or unmodified hASLLys3UUU (FS1). Percent change in fluorescent signal was calculated (% Change=100*(FS1/FS0)). A decrease (quench) in fluorescent signal in the presence of RNA indicated a binding event between the peptide and ASL. In control wells H2O, phosphate buffer, and ASLs were individually tested for any inherent fluorescent signal. Water and buffer signals served as blank background signals. […] All controls and experimental sets were repeated in triplicate within a single plate and signals are an average of each triplicate. For the subset of peptides which were further studied to obtained binding constants, the fluorescent binding assay was completed as above. The peptide fluorescent signal was monitored throughout an increasing ASL concentration (0-3 μM). The percent quench in signal was plotted against the hASL concentration. Binding constants (Kd) were calculated using the single linear regression function within SigmaPlot. Experiments were performed in triplicate within a single plate and fluorescent signals are an average of each triplicate.

In experiment [2] the target is modified hASL^Lys3UUU. Described as above. Further details: species or system human. To be noted: for Kd: Modified hASL^Lys3UUU, N-terminal fluorescein peptide, phosphate buffer pH 6.8, ASL 0-3 μM; for affinity relative to P6: from Kd values, compared with P6. The method, then:
as §1, §2

Experiment [3] relates to modified hASL^Lys3UUU. Briefly: initial validation screen, change in peptide fluorescence on addition of ASL. It is filed as binding, human. The following applies: 2-fold excess of modified hASL^Lys3UUU; result in words. The method, then: (§3) An initial fluorescent signal (FS0) of peptide alone ([…]) was obtained. Then, a 2-fold excess of ASL was added to each peptide and the fluorescent signal (FS1) was monitored. The percent change (100*(FS1/FS0)) is graphed for each of the assayed peptides. Dark gray bars represent the percent change in fluorescence in the presence of the modified hASL^Lys3UUU and light gray bars represent the percent change in the presence of the unmodified hASL^Lys3UUU.
(§4) Sequences predicted during the in silico optimizations to have the lowest binding energies and thus, potentially higher affinity for modified hASL^Lys3, were selected for validation with a fluorescence assay (9). Fifteen peptides (Table 3) were chemically synthesized with fluorescein at the N-terminus to allow for very sensitive, low volume detection of peptide-RNA binding interactions. P1 and P6 from phage display selections (9), the initially evolved sequences, P26 and P27, and the best binders from each of the Cases 1, 2 and 3 were synthesized. Variants of these sequences that had one or two amino acid changes were also synthesized (Table 3). During the initial validation assay, changes in the amount of fluorescence were monitored to determine whether the peptide was binding to the modified and/or unmodified hASLLys3UUU and to what relative degree (FIG. 12). In this screening assay, P6 behaved as expected. […] Other peptides behaved similarly.
as §1, §2

In experiment [4] the test system is unmodified hASL^Lys3UUU. Described as above. It is filed as binding, human. The following applies: 2-fold excess of unmodified hASL^Lys3UUU; result in words. The protocol:
as §3, §4, §1, §2

The target in another experiment is modified hASLLys3. The following applies: cited from earlier work.
For another experiment, the target named is unmodified ASL. To be noted: NCp7, unmodified ASL; cited from earlier work.
Another experiment concerns hypermodified ASL^Lys3. To be noted: result in words; cited from earlier work.
The test system of experiment [5] is singly modified ASL^Lys3, AsL^Lys1, 2 and Escherichia coli ASL^Glu and ASL^Val. To be noted: singly modified ASL^Lys3, ASL^Lys1,2, E. coli ASL^Glu and ASL^Val; result in words; cited from earlier work.

`CC(C)C[C@H](NC(=O)[C@H](CO)NC(=O)[C@@H]1CCCN1C(=O)[C@H](Cc1ccccc1)NC(=O)[C@H](CO)NC(=O)[C@@H](NC(=O)[C@H](CO)NC(=O)[C@@H](N)Cc1ccccc1)C(C)C)C(=O)N1CCC[C@H]1C(=O)N[C@@H](C)C(=O)N1CCC[C@H]1C(=O)N1CCC[C@H]1C(=O)N[C@@H](CC(=O)O)C(=O)N[C@@H](CCCNC(=N)N)C(=O)N[C@@H](CO)C(=O)O` [Peptide P1, FSVSFPSLPAPPDRS, reference compound] (H-FSVSFPSLPAPPDRS-OH): binding on unmodified hASL^Lys3UUU [1] was characterised by a dissociation constant (Kd) of 150 ± 40 nM. On modified hASL^Lys3UUU [2], the Kd (usually the concentration at which binding is half-saturated) amounted to 130 ± 20 nM and the “affinity relative to P6” value was “four fold”. Further, the “change in fluorescent signal of peptide (binding, preference for modified ASL)” value (shortened to “change … (binding, preference for modified ASL)”) with modified hASL^Lys3UUU [3] is “increased the fluorescence either with the unmodified or modified hASL^Lys3UUU, but not both”.
Compound `CC(C)C[C@H](NC(=O)[C@H](Cc1ccccc1)NC(=O)[C@H](C)NC(=O)[C@H](Cc1c[nH]cn1)NC(=O)[C@H](Cc1c[nH]cn1)NC(=O)[C@@H](NC(=O)[C@@H](NC(=O)[C@@H](N)CCCNC(=N)N)C(C)C)[C@@H](C)O)C(=O)NCC(=O)N[C@@H](C)C(=O)N[C@@H](Cc1c[nH]cn1)C(=O)N[C@@H](CCCNC(=N)N)C(=O)N[C@H](C(=O)N[C@H](C(=O)NCC(=O)O)C(C)C)[C@@H](C)O` [Peptide P6, RVTHHAFLGAHRTVG, reference compound] (H-RVTHHAFLGAHRTVG-OH) gave a dissociation constant Kd at modified hASL^Lys3UUU [2] of 500 ± 100 nM. The “change … (binding, preference for modified ASL)” value in the experiment with modified hASL^Lys3UUU [3] was “quenched more than when bound by the unmodified hASL^Lys3UUU”.
For the compound `CSCC[C@H](NC(=O)[C@H](CCC(N)=O)NC(=O)[C@H](Cc1c[nH]c2ccccc12)NC(=O)[C@@H](N)CCCNC(=N)N)C(=O)N[C@H](C(=O)N[C@@H](C)C(=O)N[C@@H](Cc1ccccc1)C(=O)N[C@@H](C)C(=O)N[C@@H](Cc1c[nH]cn1)C(=O)NCC(=O)N[C@@H](Cc1c[nH]c2ccccc12)C(=O)N[C@@H](CCCNC(=N)N)C(=O)N[C@@H](Cc1c[nH]cn1)C(=O)N[C@@H](CO)C(=O)NCC(=O)O)[C@@H](C)O` [Peptide P27, RWQMTAFAHGWRHSG] (H-RWQMTAFAHGWRHSG-OH), on modified hASL^Lys3UUU [2], binding was characterised by a dissociation constant (Kd) of 50 ± 20 nM and the “affinity relative to P6” value is given as 10 fold. In addition, the “change in fluorescent signal of peptide” value with unmodified hASL^Lys3UUU [4] is on record as “little or no change in fluorescence”. For the same compound, the “change … (binding, preference for modified ASL)” value in the experiment with modified hASL^Lys3UUU [3] was “quenched to a greater degree in binding the modified hASL^Lys3UUU than was the fluorescence of P6”.
Taken in the same sequence, the figures for `CSCC[C@H](NC(=O)[C@H](CCCNC(=N)N)NC(=O)[C@H](Cc1c[nH]c2ccccc12)NC(=O)[C@H](CC(C)C)NC(=O)[C@@H]1CCCN1C(=O)[C@H](Cc1c[nH]cn1)NC(=O)[C@H](Cc1ccccc1)NC(=O)[C@H](CO)NC(=O)[C@H](Cc1c[nH]cn1)NC(=O)[C@H](Cc1c[nH]cn1)NC(=O)[C@H](CCC(N)=O)NC(=O)[C@H](Cc1c[nH]c2ccccc12)NC(=O)[C@@H](N)CCCNC(=N)N)C(=O)N[C@@H](CO)C(=O)NCC(=O)O` [Peptide P31, RWQHHSFHPLWRMSG] (H-RWQHHSFHPLWRMSG-OH) were 580 ± 240 nM, “equivalent to P6”, “little or no change in fluorescence” and “quenched to a greater degree in binding the modified hASL^Lys3UUU than was the fluorescence of P6”.
As for “NCp7: HIV-1 nucleocapsid protein 7, binds and destabilizes htRNA^Lys3UUU (MQRGNFRNQRKIVKCFNCGKEGHTARNCRAPRKKGCWKCGKEGHQMKDCTERQAN; Nucleocapsid protein p7; UniProt P04591 378-432, looked up)”, the dissociation constant (Kd) was 280 ± 30 nM on modified hASLLys3 (NCp7, modified hASLLys3) and 2300 ± 620 nM on unmodified ASL. In addition, the “increase of NCp7 affinity by the modifications” value with modified hASLLys3 (modified vs unmodified hASLLys3) was about 10 fold.
In the case of RFQHSNWFSGWKVNG [Peptide P34], the “change … (binding, preference for modified ASL)” value in the experiment on modified hASL^Lys3UUU [3] was “increased the fluorescence either with the unmodified or modified hASL^Lys3UUU, but not both”.
Regarding RGVFSHPHTAVPSHN, the binding affinity result in the experiment with hypermodified ASL^Lys3 is given as “relatively high binding affinity”. Besides, in experiment [5], the binding entry is on record as “bound poorly”.
Regarding RHHHASFGPPWLSHG [Peptide P32], the “change … (binding, preference for modified ASL)” value in the experiment on modified hASL^Lys3UUU [3] was “significantly weaker affinities and a lack of specificity”.
On the same count and under the same terms, the same measure for RHSHAHFGPPWLSHG [Peptide P33]: “significantly weaker affinities and a lack of specificity”.
As for RTLHHALFGAHQTVG [Peptide P26], the “change … (binding, preference for modified ASL)” value in the experiment on modified hASL^Lys3UUU [3] is listed as “increased the fluorescence either with the unmodified or modified hASL^Lys3UUU, but not both”.
In the case of RWNGSQWFCAWRANG [Peptide P36], the “change … (binding, preference for modified ASL)” value in the experiment on modified hASL^Lys3UUU [3] was “increased the fluorescence either with the unmodified or modified hASL^Lys3UUU, but not both”.
The same measure, in the same setting: the same measure for RWTHCQFWQGFRVNG [Peptide P38]: “increased the fluorescence either with the unmodified or modified hASL^Lys3UUU, but not both”.

The record behind these values is patent publication US9975922B2, “Peptide inhibitor of HIV reverse transcription” (priority 2013, dated 2018).
